In patent publication US8258114B2, “Modulation of glucose-6-phosphatase translocase expression” (Isis Pharmaceuticals, Inc., priority 2004, dated 2012):
Oligonucleotides are written 5' to 3', each unit as a sugar letter and its base; * is a phosphorothioate linkage, no mark a phosphodiester; rarer units and linkages stand in square brackets, end groups in braces. Plain capitals give the bases only. e = 2'-O-(2-methoxyethyl) (MOE); [5mC] = 5-methylcytosine; d = 2'-deoxy (DNA)

These sequences were tested on mouse glucose-6-phosphatase translocase mRNA (assay: Antisense inhibition of mouse glucose-6-phosphatase translocase mRNA in primary mouse hepatocytes, 150 nM, LIPOFECTIN (Table 22)). Settings: real-time PCR.
Assay type: cell-based
Protocol: Primary mouse hepatocytes were prepared from CD-1 mice purchased from Charles River Labs. Primary mouse hepatocytes were routinely cultured in Hepatocyte Attachment Media supplemented with 10% fetal bovine serum (Invitrogen Life Technologies, Carlsbad, Calif.), 250 nM dexamethasone, and 10 nM bovine insulin (Sigma-Aldrich, St. Louis, Mo.). Cells were seeded into 96-well plates (Falcon-Primaria #353872, BD Biosciences, Bedford, Mass.) at a density of approximately 4,000-6,000 cells/well for use in oligomeric compound transfection experiments.
(§1) When cells reached 65-75% confluency, they were treated with oligonucleotide. Oligonucleotide was mixed with LIPOFECTIN™ Invitrogen Life Technologies, Carlsbad, Calif.) in Opti-MEM™-1 reduced serum medium (Invitrogen Life Technologies, Carlsbad, Calif.) to achieve the desired concentration of oligonucleotide and a LIPOFECTIN™ concentration of 2.5 or 3 μg/mL per 100 nM oligonucleotide. This transfection mixture was incubated at room temperature for approximately 0.5 hours. For cells grown in 96-well plates, wells were washed once with 100 μL OPTI-MEM™-1 and then treated with 130 μL of the transfection mixture. Cells grown in 24-well plates or other standard tissue culture plates are treated similarly, using appropriate volumes of medium and oligonucleotide. Cells are treated and data are obtained in duplicate or triplicate. After approximately 4-7 hours of treatment at 37° C., the medium containing the transfection mixture was replaced with fresh culture medium. Cells were harvested 16-24 hours after oligonucleotide treatment.
(§2) Quantitation of glucose 6-phosphatase translocase mRNA levels was accomplished by real-time quantitative PCR using the ABI PRISM™ 7600, 7700, or 7900 Sequence Detection System (PE-Applied Biosystems, Foster City, Calif.) according to manufacturer's instructions.
(§3) Prior to quantitative PCR analysis, primer-probe sets specific to the target gene being measured were evaluated for their ability to be “multiplexed” with a GAPDH amplification reaction. After isolation the RNA is subjected to sequential reverse transcriptase (RT) reaction and real-time PCR, both of which are performed in the same well. RT and PCR reagents were obtained from Invitrogen Life Technologies (Carlsbad, Calif.). […] The RT reaction was carried out by incubation for 30 minutes at 48° C. Following a 10 minute incubation at 95° C. to activate the PLATINUM® Taq, 40 cycles of a two-step PCR protocol were carried out: 95° C. for 15 seconds (denaturation) followed by 60° C. for 1.5 minutes (annealing/extension).
(§4) Gene target quantities obtained by RT, real-time PCR were normalized using either the expression level of GAPDH, a gene whose expression is constant, or by quantifying total RNA using RiboGreen™ (Molecular Probes, Inc. Eugene, Oreg.). GAPDH expression was quantified by RT, real-time PCR, by being run simultaneously with the target, multiplexing, or separately. Total RNA was quantified using RiboGreen™ RNA quantification reagent (Molecular Probes, Inc. Eugene, Oreg.).
A series of oligomeric compounds was designed to target different regions of mouse glucose-6-phosphatase translocase, using published sequences cited in Table 1. All compounds in Table 22 are chimeric oligonucleotides (“gapmers”) 20 nucleotides in length, composed of a central “gap” region consisting of 10 2′-deoxynucleotides, which is flanked on both sides (5′ and 3′) by five-nucleotide “wings”. The wings are composed of 2′-O-(2-methoxyethyl) nucleotides, also known as 2′-MOE nucleotides. The internucleoside (backbone) linkages are phosphorothioate throughout the oligonucleotide. All cytidine residues are 5-methylcytidines. The compounds were analyzed for their effect on gene target mRNA levels by quantitative real-time PCR as described in other examples herein, using the following primer-probe set designed to hybridize to mouse glucose-6-phosphatase translocase: • forward primer: […]

| Sequence | % Inhib of mouse glucose-6-phosphatase translocase mRNA levels [%] |
| --- | --- |
| ACCACACACAGTGCCCCAGA (eA*e[5mC]*e[5mC]*eA*e[5mC]*dA*d[5mC]*dA*d[5mC]*dA*dG*dT*dG*d[5mC]*d[5mC]*e[5mC]*e[5mC]*eA*eG*eA; antisense) [ISIS 145670] | 45 |
| ACCCAGAAGGCTGTGCTCCA (eA*e[5mC]*e[5mC]*e[5mC]*eA*dG*dA*dA*dG*dG*d[5mC]*dT*dG*dT*dG*e[5mC]*eT*e[5mC]*e[5mC]*eA; antisense) [ISIS 145702] | 45 |
| AGGAAGAACTGGCCCCAGTC (eA*eG*eG*eA*eA*dG*dA*dA*d[5mC]*dT*dG*dG*d[5mC]*d[5mC]*d[5mC]*e[5mC]*eA*eG*eT*e[5mC]; antisense) [ISIS 145685] | 43 |

What follows are sequences tested on human glucose-6-phosphatase translocase mRNA (assay: Antisense inhibition of human glucose-6-phosphatase translocase mRNA in HepG2 cells (Table 11)). Settings: LIPOFECTIN, mRNA by real-time PCR.
Assay type: cell-based
Parameters: concentration or dose not given beside the values
Protocol: The human hepatoblastoma cell line HepG2 was obtained from the American Type Culture Collection (Manassas, Va.). HepG2 cells were routinely cultured in Eagle's MEM supplemented with 10% fetal bovine serum, 1 mM non-essential amino acids, and 1 mM sodium pyruvate (Invitrogen Life Technologies, Carlsbad, Calif.). Cells were routinely passaged by trypsinization and dilution when they reached approximately 90% confluence. Multiwell culture plates are prepared for cell culture by coating with a 1:100 dilution of type 1 rat tail collagen (BD Biosciences, Bedford, Mass.) in phosphate-buffered saline. The collagen-containing plates were incubated at 37° C. for approximately 1 hour, after which the collagen was removed and the wells were washed twice with phosphate-buffered saline. Cells were seeded into 96-well plates (Falcon-Primaria #353872, BD Biosciences, Bedford, Mass.) at a density of approximately 8,000 cells/well for use in oligomeric compound transfection experiments.
as §1, §2, §3, §4
A series of oligomeric compounds was designed to target different regions of human glucose-6-phosphatase translocase, using published sequences cited in Table 1. All compounds in Table 4 are chimeric oligonucleotides (“gapmers”) 20 nucleotides in length, composed of a central “gap” region consisting of 10 2′-deoxynucleotides, which is flanked on both sides (5′ and 3′) by five-nucleotide “wings”. The wings are composed of 2′-O-(2-methoxyethyl) nucleotides, also known as 2′-MOE nucleotides. […]

| Sequence | % Inhib [%] |
| --- | --- |
| ACCACACACAGTGCCCCAGA (eA*e[5mC]*e[5mC]*eA*e[5mC]*dA*d[5mC]*dA*d[5mC]*dA*dG*dT*dG*d[5mC]*d[5mC]*e[5mC]*e[5mC]*eA*eG*eA; antisense) [ISIS 145670] | 42 |
| ACCCAGAAGGCTGTGCTCCA (eA*e[5mC]*e[5mC]*e[5mC]*eA*dG*dA*dA*dG*dG*d[5mC]*dT*dG*dT*dG*e[5mC]*eT*e[5mC]*e[5mC]*eA; antisense) [ISIS 145702] | 74 |
| AGGAAGAACTGGCCCCAGTC (eA*eG*eG*eA*eA*dG*dA*dA*d[5mC]*dT*dG*dG*d[5mC]*d[5mC]*d[5mC]*e[5mC]*eA*eG*eT*e[5mC]; antisense) [ISIS 145685] | 71 |
| CCAGGAGCAGCCCAGAAGAG (e[5mC]*e[5mC]*eA*eG*eG*dA*dG*d[5mC]*dA*dG*d[5mC]*d[5mC]*d[5mC]*dA*dG*eA*eA*eG*eA*eG; antisense) [ISIS 359506] | 58 |
| CCATACGAGGAGAAACCAAA (e[5mC]*e[5mC]*eA*eT*eA*d[5mC]*dG*dA*dG*dG*dA*dG*dA*dA*dA*e[5mC]*e[5mC]*eA*eA*eA; antisense) [ISIS 359542] | 46 |
| CCATCTTGGTGCGGATGTTT (e[5mC]*e[5mC]*eA*eT*e[5mC]*dT*dT*dG*dG*dT*dG*d[5mC]*dG*dG*dA*eT*eG*eT*eT*eT; antisense) [ISIS 359547] | 91 |
| CCCTCCAGCCAGGTTCATGC (e[5mC]*e[5mC]*e[5mC]*eT*e[5mC]*d[5mC]*dA*dG*d[5mC]*d[5mC]*dA*dG*dG*dT*dT*e[5mC]*eA*eT*eG*e[5mC]; antisense) [ISIS 359515] | 62 |
| CGAGGAGAAACCAAATACAG (e[5mC]*eG*eA*eG*eG*dA*dG*dA*dA*dA*d[5mC]*d[5mC]*dA*dA*dA*eT*eA*e[5mC]*eA*eG; antisense) [ISIS 359541] | 41 |
| CTGGTCACTGTTACCCGGAA (e[5mC]*eT*eG*eG*eT*d[5mC]*dA*d[5mC]*dT*dG*dT*dT*dA*d[5mC]*d[5mC]*e[5mC]*eG*eG*eA*eA; antisense) [ISIS 359533] | 69 |
| CTGGTTGACAGGATGGCCCA (e[5mC]*eT*eG*eG*eT*dT*dG*dA*d[5mC]*dA*dG*dG*dA*dT*dG*eG*e[5mC]*e[5mC]*e[5mC]*eA; antisense) [ISIS 359511] | 55 |
| GAAACCAAATACAGCTCCCA (eG*eA*eA*eA*e[5mC]*d[5mC]*dA*dA*dA*dT*dA*d[5mC]*dA*dG*d[5mC]*eT*e[5mC]*e[5mC]*e[5mC]*eA; antisense) [ISIS 359539] | 38 |
| GAACTGGCCCCAGTCAGTAC (eG*eA*eA*e[5mC]*eT*dG*dG*d[5mC]*d[5mC]*d[5mC]*d[5mC]*dA*dG*dT*d[5mC]*eA*eG*eT*eA*e[5mC]; antisense) [ISIS 359528] | 45 |
| GAAGGAGACAACCACACACA (eG*eA*eA*eG*eG*dA*dG*dA*d[5mC]*dA*dA*d[5mC]*d[5mC]*dA*d[5mC]*eA*e[5mC]*eA*e[5mC]*eA; antisense) [ISIS 359520] | 42 |
| GAGAAACCAAATACAGCTCC (eG*eA*eG*eA*eA*dA*d[5mC]*d[5mC]*dA*dA*dA*dT*dA*d[5mC]*dA*eG*e[5mC]*eT*e[5mC]*e[5mC]; antisense) [ISIS 359540] | 92 |
| GCCACCCAGAAGGCTGTGCT (eG*e[5mC]*e[5mC]*eA*e[5mC]*d[5mC]*d[5mC]*dA*dG*dA*dA*dG*dG*d[5mC]*dT*eG*eT*eG*e[5mC]*eT; antisense) [ISIS 359545] | 65 |
| GTCACTGGTCACTGTTACCC (eG*eT*e[5mC]*eA*e[5mC]*dT*dG*dG*dT*d[5mC]*dA*d[5mC]*dT*dG*dT*eT*eA*e[5mC]*e[5mC]*e[5mC]; antisense) [ISIS 359534] | 75 |
| GTGCTCTCCTCCTTCAAGGA (eG*eT*eG*e[5mC]*eT*d[5mC]*dT*d[5mC]*d[5mC]*dT*d[5mC]*d[5mC]*dT*dT*d[5mC]*eA*eA*eG*eG*eA; antisense) [ISIS 359527] | 45 |
| GTGCTGCGCCAGCTGTAGCT (eG*eT*eG*e[5mC]*eT*dG*d[5mC]*dG*d[5mC]*d[5mC]*dA*dG*d[5mC]*dT*dG*eT*eA*eG*e[5mC]*eT; antisense) [ISIS 359517] | 25 |
| TACCAGGATCCAGAGCTTGG (eT*eA*e[5mC]*e[5mC]*eA*dG*dG*dA*dT*d[5mC]*d[5mC]*dA*dG*dA*dG*e[5mC]*eT*eT*eG*eG; antisense) [ISIS 359535] | 58 |
| TCACTGTTACCCGGAAGAGG (eT*e[5mC]*eA*e[5mC]*eT*dG*dT*dT*dA*d[5mC]*d[5mC]*d[5mC]*dG*dG*dA*eA*eG*eA*eG*eG; antisense) [ISIS 359532] | 48 |
| TCCAGCCAGGTTCATGCTGG (eT*e[5mC]*e[5mC]*eA*eG*d[5mC]*d[5mC]*dA*dG*dG*dT*dT*d[5mC]*dA*dT*eG*e[5mC]*eT*eG*eG; antisense) [ISIS 359514] | 37 |
| TCCCAATACCAGGATCCAGA (eT*e[5mC]*e[5mC]*e[5mC]*eA*dA*dT*dA*d[5mC]*d[5mC]*dA*dG*dG*dA*dT*e[5mC]*e[5mC]*eA*eG*eA; antisense) [ISIS 359536] | 55 |
| TCCTTCAAGGAGCCCTTCTT (eT*e[5mC]*e[5mC]*eT*eT*d[5mC]*dA*dA*dG*dG*dA*dG*d[5mC]*d[5mC]*d[5mC]*eT*eT*e[5mC]*eT*eT; antisense) [ISIS 359525] | 56 |
| TCCTTTCTCCTGGATAAGGA (eT*e[5mC]*e[5mC]*eT*eT*dT*d[5mC]*dT*d[5mC]*d[5mC]*dT*dG*dG*dA*dT*eA*eA*eG*eG*eA; antisense) [ISIS 359530] | 59 |
| TCTCCTCCTTCAAGGAGCCC (eT*e[5mC]*eT*e[5mC]*e[5mC]*dT*d[5mC]*d[5mC]*dT*dT*d[5mC]*dA*dA*dG*dG*eA*eG*e[5mC]*e[5mC]*e[5mC]; antisense) [ISIS 359526] | 54 |
| TCTCCTGGATAAGGAAGAAC (eT*e[5mC]*eT*e[5mC]*e[5mC]*dT*dG*dG*dA*dT*dA*dA*dG*dG*dA*eA*eG*eA*eA*e[5mC]; antisense) [ISIS 359529] | 15 |
| TGTAGTGCTTGGCAATGGTG (eT*eG*eT*eA*eG*dT*dG*d[5mC]*dT*dT*dG*dG*d[5mC]*dA*dA*eT*eG*eG*eT*eG; antisense) [ISIS 359544] | 7 |
| TTACCCGGAAGAGGTACATG (eT*eT*eA*e[5mC]*e[5mC]*d[5mC]*dG*dG*dA*dA*dG*dA*dG*dG*dT*eA*e[5mC]*eA*eT*eG; antisense) [ISIS 359531] | 62 |
| TTCAGCCACCCAGAAGGCTG (eT*eT*e[5mC]*eA*eG*d[5mC]*d[5mC]*dA*d[5mC]*d[5mC]*d[5mC]*dA*dG*dA*dA*eG*eG*e[5mC]*eT*eG; antisense) [ISIS 359546] | 39 |
